Source: ChEMBL document CHEMBL3885861, “Open TG-GATES”

Species on record: Rattus norvegicus
Experiment: Open TG-GATES - Regimen: Daily Repeat
Type: toxicity, organism-based, Sprague-Dawley
Parameters: regimen Daily Repeat, gender Male, age 6 weeks
Conditions: in vivo, po, route gavage; for Bas / Eos / Fbg / Hb / Ht / Lym / MCHC / MCV / Mono / PT / Plat / RBC / Ret / WBC / Neu: tissue Blood; for ALP / ALT / AST / CRE / Ca / Cl / DBIL / GLC / IP / K / LDH / Na / PL / RALB / TBIL / TC / TG / TP / gamma-GTP / BUN: tissue Plasma
[1] = 0 mg/kg, 72 h, dose level Control, time 3 day
[2] = 0 mg/kg, […], dose level Control, time 7 day
[3] = 0 mg/kg, […], dose level Control, time 14 day
[4] = 0 mg/kg, […], dose level Control, time 28 day
[5] = 100 mg/kg, 72 h, dose level Low, time 3 day
[6] = 100 mg/kg, […], dose level Low, time 7 day
[7] = 100 mg/kg, […], dose level Low, time 14 day
[8] = 100 mg/kg, […], dose level Low, time 28 day
[9] = 300 mg/kg, 72 h, dose level Middle, time 3 day

**Q.** Which results are given for O=C(O)c1cccnc1 [NIACIN]?
**A.** TERMINAL_BW [1]: 241.1 g; Bas [1]: 0%; Eos [1]: 0.8%; Fbg [1]: 321 mg/dL; Hb [1]: 12.8 g/dL; Ht [1]: 38.2%; Lym [1]: 81.2%; MCHC [1]: 33.5%; MCV [1]: 62.4 fL; Mono [1]: 3%; PT [1]: 15.9 s; Plat [1]: 125.7 x10_4/uL; RBC [1]: 612.4 x10_4/ul; Ret [1]: 7.8%; WBC [1]: 116.2 x10_2/uL; ALP [1]: 1807.6 IU/L; ALT [1]: 48 IU/L; AST [1]: 73.2 IU/L; CRE [1]: 0.2 mg/dL; Ca [1]: 10.7 mg/dL; Cl [1]: 104.2 meq/L; DBIL [1]: 0 mg/dL; GLC [1]: 201.8 mg/dL; IP [1]: 7.7 mg/dL; K [1]: 4.4 meq/L; LDH [1]: 161.4 IU/L; Na [1]: 139.2 meq/L; PL [1]: 151.6 mg/dL; RALB [1]: 3.1 g/dL; TBIL [1]: 0 mg/dL; TC [1]: 80 mg/dL; TG [1]: 92.8 mg/dL; TP [1]: 5.6 g/dL; gamma-GTP [1]: 1.4 IU/L; TERMINAL_BW [2]: 268.8 g; TERMINAL_BW [3]: 327.5 g; TERMINAL_BW [4]: 405.7 g; Bas [2]: 0%; Eos [2]: 1%; Fbg [2]: 334.8 mg/dL; Ht [2]: 41.3%; Lym [2]: 78.2%; MCHC [2]: 34.3%; Mono [2]: 3.2%; Neu [2]: 16.8%; PT [2]: 16.5 s; Plat [2]: 116.1 x10_4/uL; RBC [2]: 681 x10_4/ul; Ret [2]: 5.5%; WBC [2]: 120.8 x10_2/uL; Bas [3]: 0%; Eos [3]: 1%; Fbg [3]: 329 mg/dL; Ht [3]: 41.5%; Lym [3]: 77.8%; MCHC [3]: 34.2%; MCV [3]: 60.4 fL; Mono [3]: 2.6%; Neu [3]: 17%; PT [3]: 15.9 s; Plat [3]: 115.7 x10_4/uL; RBC [3]: 688.8 x10_4/ul; Ret [3]: 5.1%; WBC [3]: 127.5 x10_2/uL; Bas [4]: 0%; Eos [4]: 1.2%; Fbg [4]: 331.4 mg/dL; Hb [4]: 15 g/dL; Ht [4]: 42.7%; Lym [4]: 80.6%; MCHC [4]: 35.2%; MCV [4]: 56.6 fL; Mono [4]: 2%; Neu [4]: 15%; PT [4]: 16.5 s; Plat [4]: 89.6 x10_4/uL; RBC [4]: 754.4 x10_4/ul; Ret [4]: 3%; WBC [4]: 119.1 x10_2/uL; ALP [2]: 1431.4 IU/L; ALT [2]: 37.2 IU/L; AST [2]: 67 IU/L; CRE [2]: 0.1 mg/dL; Ca [2]: 10.8 mg/dL; Cl [2]: 105.2 meq/L; DBIL [2]: 0 mg/dL; GLC [2]: 190.4 mg/dL; IP [2]: 7.4 mg/dL; K [2]: 4.2 meq/L; LDH [2]: 155.6 IU/L; Na [2]: 139.8 meq/L; PL [2]: 160.4 mg/dL; RALB [2]: 3 g/dL; TBIL [2]: 0 mg/dL; TC [2]: 78.6 mg/dL; TG [2]: 130 mg/dL; TP [2]: 5.7 g/dL; gamma-GTP [2]: 1.6 IU/L; ALP [3]: 1595.6 IU/L; AST [3]: 68 IU/L; CRE [3]: 0.2 mg/dL; Ca [3]: 10.6 mg/dL; Cl [3]: 104.2 meq/L; DBIL [3]: 0 mg/dL; GLC [3]: 198.2 mg/dL; IP [3]: 7.1 mg/dL; K [3]: 4 meq/L; LDH [3]: 163.6 IU/L; Na [3]: 138 meq/L; PL [3]: 156 mg/dL; RALB [3]: 3.1 g/dL; TBIL [3]: 0.006 mg/dL; TC [3]: 75.6 mg/dL; TG [3]: 144.2 mg/dL; TP [3]: 5.9 g/dL; gamma-GTP [3]: 1 IU/L; ALP [4]: 1086.6 IU/L; ALT [4]: 37.4 IU/L; AST [4]: 63.8 IU/L; BUN [4]: 17.8 mg/dL; CRE [4]: 0.2 mg/dL; Ca [4]: 10.1 mg/dL; Cl [4]: 106.4 meq/L; DBIL [4]: 0 mg/dL; GLC [4]: 214.4 mg/dL; IP [4]: 6.9 mg/dL; K [4]: 4.2 meq/L; LDH [4]: 150.6 IU/L; Na [4]: 142.8 meq/L; PL [4]: 149.4 mg/dL; RALB [4]: 3.1 g/dL; TBIL [4]: 0.012 mg/dL; TC [4]: 76.6 mg/dL; TG [4]: 121 mg/dL; TP [4]: 5.9 g/dL; gamma-GTP [4]: 2.4 IU/L; TERMINAL_BW [5]: 239.7 g; Bas [5]: 0%; Eos [5]: 1.2%; Fbg [5]: 317.2 mg/dL; Hb [5]: 13.7 g/dL; Ht [5]: 40.5%; Lym [5]: 70.2%; MCV [5]: 63.5 fL; Mono [5]: 4%; Neu [5]: 23.2%; Plat [5]: 107.5 x10_4/uL; RBC [5]: 637 x10_4/ul; Ret [5]: 6.9%; WBC [5]: 128.4 x10_2/uL; ALP [5]: 1717.8 IU/L; ALT [5]: 49 IU/L; AST [5]: 79.2 IU/L; BUN [5]: 16 mg/dL; CRE [5]: 0.1 mg/dL; Ca [5]: 10.8 mg/dL; Cl [5]: 104.2 meq/L; DBIL [5]: 0 mg/dL; GLC [5]: 199.8 mg/dL; IP [5]: 7.4 mg/dL; K [5]: 3.9 meq/L; LDH [5]: 171.8 IU/L; Na [5]: 139.2 meq/L; PL [5]: 163.8 mg/dL; RALB [5]: 3.1 g/dL; TBIL [5]: 0 mg/dL; TC [5]: 84.2 mg/dL; TG [5]: 110.8 mg/dL; TP [5]: 5.8 g/dL; gamma-GTP [5]: 1.2 IU/L; TERMINAL_BW [6]: 273.1 g; TERMINAL_BW [7]: 326.9 g; TERMINAL_BW [8]: 387.9 g; Bas [6]: 0%; Eos [6]: 1%; Fbg [6]: 316 mg/dL; Hb [6]: 13.5 g/dL; Ht [6]: 39.5%; Lym [6]: 82%; MCHC [6]: 34.1%; MCV [6]: 60.8 fL; Mono [6]: 3%; Neu [6]: 12.8%; PT [6]: 16 s; Plat [6]: 109.3 x10_4/uL; RBC [6]: 650 x10_4/ul; Ret [6]: 5.9%; WBC [6]: 109.2 x10_2/uL; Bas [7]: 0%; Eos [7]: 1%; Fbg [7]: 330.8 mg/dL; Ht [7]: 41.5%; Lym [7]: 75.2%; MCHC [7]: 34%; Mono [7]: 2.6%; Neu [7]: 20%; PT [7]: 15.8 s; Plat [7]: 107.6 x10_4/uL; RBC [7]: 685 x10_4/ul; Ret [7]: 4.7%; WBC [7]: 102.7 x10_2/uL; Bas [8]: 0%; Eos [8]: 1%; Fbg [8]: 330.4 mg/dL; Hb [8]: 15.2 g/dL; Ht [8]: 43.1%; Lym [8]: 83.4%; MCHC [8]: 35.3%; MCV [8]: 56 fL; Mono [8]: 2.4%; Neu [8]: 11.8%; PT [8]: 16.5 s; Plat [8]: 102.2 x10_4/uL; RBC [8]: 770 x10_4/ul; Ret [8]: 2.8%; WBC [8]: 117.4 x10_2/uL; ALP [6]: 1740.2 IU/L; ALT [6]: 44.4 IU/L; AST [6]: 69 IU/L; BUN [6]: 17.2 mg/dL; CRE [6]: 0.2 mg/dL; Ca [6]: 10.7 mg/dL; Cl [6]: 104.8 meq/L; DBIL [6]: 0 mg/dL; GLC [6]: 171.4 mg/dL; IP [6]: 7.3 mg/dL; K [6]: 4.7 meq/L; LDH [6]: 141 IU/L; Na [6]: 138.8 meq/L; PL [6]: 145 mg/dL; RALB [6]: 2.9 g/dL; TBIL [6]: 0 mg/dL; TC [6]: 66.6 mg/dL; TG [6]: 150 mg/dL; TP [6]: 5.5 g/dL; gamma-GTP [6]: 1.4 IU/L; ALP [7]: 1532.6 IU/L; ALT [7]: 42.8 IU/L; AST [7]: 73.6 IU/L; BUN [7]: 17 mg/dL; CRE [7]: 0.2 mg/dL; Ca [7]: 10.5 mg/dL; Cl [7]: 104.6 meq/L; DBIL [7]: 0 mg/dL; GLC [7]: 196.4 mg/dL; IP [7]: 6.4 mg/dL; K [7]: 4 meq/L; LDH [7]: 209 IU/L; Na [7]: 138.4 meq/L; PL [7]: 144.4 mg/dL; RALB [7]: 3 g/dL; TBIL [7]: 0.002 mg/dL; TC [7]: 66.8 mg/dL; TG [7]: 150.8 mg/dL; TP [7]: 5.8 g/dL; gamma-GTP [7]: 1.4 IU/L; ALP [8]: 1249.8 IU/L; ALT [8]: 39.8 IU/L; AST [8]: 64.6 IU/L; BUN [8]: 18.2 mg/dL; CRE [8]: 0.2 mg/dL; Ca [8]: 10.4 mg/dL; Cl [8]: 107 meq/L; DBIL [8]: 0 mg/dL; GLC [8]: 192.8 mg/dL; IP [8]: 6.5 mg/dL; K [8]: 4.2 meq/L; LDH [8]: 129.4 IU/L; Na [8]: 143.4 meq/L; PL [8]: 147.6 mg/dL; RALB [8]: 3.1 g/dL; TBIL [8]: 0.014 mg/dL; TC [8]: 70.6 mg/dL; TG [8]: 158.8 mg/dL; TP [8]: 6 g/dL; gamma-GTP [8]: 2 IU/L; TERMINAL_BW [9]: 241.8 g; Bas [9]: 0%
